Measured values taken from patent US20210255205A1, “COMPOSITIONS AND METHODS FOR TREATING METABOLIC DISEASE” (THE REGENTS OF THE UNIVERSITY OF CALIFORNIA, priority 2018, published 2021).

Columns and labels:
[1] = test system: ASTER domain from Aster-B; assay: 22-NBD-cholesterol binding competition with sterols, Aster-B; settings: competitor 10 μM
Method: FIG. 1E: Aster-B334-562 (1-10 μM) was titrated with 10-3000 nM 22-NBD-cholesterol in PBS and fluorescent ligand-binding assays were performed. […] FIG. 1G: Aster-B334-562 was titrated with 22-NBD-cholesterol in the presence of vehicle, estradiol, or various hydroxycholesterol (HC) sterol competitors as indicated (10 μM). Results values are means±SD.
Fluorescent sterol binding assays were carried out as previously described (Petrescu et al., 2001; Wei et al., 2016) in 384-well black flat-bottom plates and equilibrated at room temperature for 1 hour. Measurements were made using a CLARIOstar (BMG LABTECH) microplate reader. The NBD fluorophore was excited with 1(ex)=470 nm and 1(em)=525 and plotted using Prism software. Dissociation constants (KD) were determined by nonlinear regression analysis of dose-response curves.
Aster-A (FIG. 15A), B (FIG. 15B) and C (FIG. 15C) was titrated with 22-NBD-cholesterol in the presence of vehicle or various HC sterol competitors as indicated (3 μM). […] Results values are means±SD.

[2] = target: ASTER domains from Aster-A, -B, and -C; assay: fluorescent NBD-cholesterol binding assay; design: species or system mouse; settings: NBD-cholesterol 10-3,000 nM, ASTER-domain concentration constant; fit to a single exponential; average over the ASTER domains
Method: For binding and transfer studies Aster domains (Aster-A261-576, Aster-B224-560, Aster-C206-528) were expressed by baculovirus in Sf-9 insect cells with an N-terminal FLAG tag and a C-terminal 6× His Tag (“6× His Tag” disclosed as SEQ ID NO: 11). Proteins were expressed with P3 baculovirus for 48 hours at 27° C. Cells were recovered by centrifugation, lysed by sonication. Insoluble material was pelleted at 16,000×g for 40 minutes. Soluble protein was first purified using a Ni-NTA column (Qiagen, 30210) and eluted with 250 mM imidazole PBS buffer after extensive washing. Following dialysis proteins were purified using FLAG M2 affinity gel (Sigma A2220) columns and eluted with 100 μg/mL 1× FLAG peptide after washing for ten column volumes. Proteins were then either dialyzed to remove the FLAG peptide or purified further by size exclusion chromatography.
Fluorescent sterol binding assays were carried out as previously described (Petrescu et al., 2001; Wei et al., 2016) in 384-well black flat-bottom plates and equilibrated at room temperature for 1 hour. Measurements were made using a CLARIOstar (BMG LABTECH) microplate reader. The NBD fluorophore was excited with 1(ex)=470 nm and 1(em)=525 and plotted using Prism software. Dissociation constants (KD) were determined by nonlinear regression analysis of dose-response curves. […]

[3] = test system: ASTER domain of Aster-B; assay: GST agarose assay for [^3H]cholesterol binding; design: species or system mouse; settings: 150 nM protein, 0.003% Triton X-100 in PBS
Method: Reactions were carried out in binding buffer (0.003% Triton X-100 in 1× PBS) containing 150 nM of Aster-B ASTER protein and [^3H]cholesterol. After incubation for 30 min at room temperature, the mixture was incubated with pre-equilibrated of glutathione agarose resin (Pierce PI16100) at 4° C. for 2 h, then loaded onto a column and washed. The protein-bound [^3H]cholesterol was eluted with 10 mM GSH peptide and quantified by scintillation counting.

[4] = test system: Gramd1b; assay: Gramd1b gene expression by real-time PCR in macrophages; type: cell-based; settings: wild-type (WT) but not LXR-null mouse macrophages; 1 μM, 16 h
Excerpt: Values are means±SEM. Results are representative of three independent experiments. […] Input (Ctrl) served as a control for LXR enrichment. […] FIG. 1D: […] Values are means±SEM. FIG. 1E: […] FIG. 1F: […] Results values are means±SD. FIG. 1G: […] Results values are means±SD. FIG. 1H: […] Values are means±SEM. Total RNA was isolated using TRIzol reagent (Invitrogen) and reverse transcribed with the iScript cDNA synthesis kit (Biorad). cDNA was quantified by real-time PCR using SYBR Green Master Mix (Diagenode) on an ABI 7900 instrument. Gene expression levels were determined by using a standard curve. Each gene was normalized to the housekeeping gene 36B4 and was analyzed in duplicate. Primers used for real-time PCR are available upon request. […] Gramd1b was induced by a synthetic LXR agonist in wild-type (WT) but not LXR-null mouse macrophages (FIG. 1A). […] Gramd1b belongs to a family of highly-conserved genes, which have been designated Gramd1a, -b, and -c in databases. One-to-one orthologs of Gramd1b are present in all vertebrate classes (FIG. 2A). The predicted amino acid sequence of the human protein is 78% identical to that from Oreochromis niloticus (nile tilapia). These genes have not previously been characterized; their structures are incorrectly annotated in databases; and the function of their protein products is unknown. […] The protein products are referred to as Aster-A, -B, and -C.

[5] = test system: 3T3-L1 cells; assay: Aster-A ASO knockdown, SREBP-2 pathway and gene/protein expression; type: cell-based, murine
Method: FIG. 13A: Immunoblot analysis of membrane (top) and nuclear (bottom) protein levels in 3T3-L1 cells treated for 48 h with control or Aster-A-specific ASO and then for the indicated times with cyclodextrin-cholesterol. Calnexin was used as a membrane loading control and Lamin A/C as a nuclear loading control. FIG. 13B: Real-time PCR analysis of gene expression in 3T3-L1 cells treated for 48 h with control or Aster-A-specific ASO and then for the indicated times with cyclodextrin-cholesterol. ***p<0.001. FIG. 13C: Real-time PCR analysis of Abca1 expression in 3T3-L1 cells treated for 48 h with control or Aster-A-specific ASO and then for the indicated times with cyclodextrin-cholesterol. **p<0.01; ***p<0.001. FIG. 13D: Time course of cholesteryl ester formation in 3T3-L1 fibroblasts treated with control or Aster-A-specific ASO for 48 h. Cells were incubated with [^3H]oleate for the indicated time, CE was isolated by TLC, and the incorporation of label into CE quantified by scintillation counting and normalized to protein (mg). *p<0.05; ***p<0.001. FIG. 13E: Expression levels of the indicated genes in adrenal glands from WT and Aster-B KO mice (mean±SEM; N=6-8 per group). Statistical analysis was performed using Student's t-test. Values are means±SEM. *p<0.05; **p<0.01; ***p<0.001; ****p<0.0001. FIG. 13F: Immunoblot analysis of membrane (top) and nuclear (bottom) protein levels in adrenals from WT and Aster-B KO mice (n=5). Calnexin was used as a membrane loading control and Lamin A/C as a nuclear loading control. FIG. 13G: Serum cholesterol levels in WT and Aster-B KO mice that were fasting for five h (mean±SEM; N=6 per group). FIG. 13H: Serum corticosterone levels measured by ELISA in WT and Aster-B KO mice that were fed ad-lib or fasted overnight (˜16 hours). N=4 per group. Statistical analysis was performed using Student's t-test. Values are mean±SEM. *p<0.05; **p<0.01; ***p<0.001; ****p<0.0001.
Generation 2.5 constrained ethyl ASOs were synthesized as described previously (Seth et al., 2009). For in vitro knockdown studies, control or Aster-A ASO ([…] (SEQ ID NO: 13)) was used. Undifferentiated murine 3T3-L1 cells were plated in 10% FBS DMEM on Day 0. On Day 1 cells were washed and supplemented with 1% LPDS. Cells were then transfected with ASOs using Dharmafect 1 reagent per the manufacturer's recommendations for knockdown studies (Dharmacon, 50 nM final concentration). On Day 2, the medium was changed to fresh DMEM with 1% LPDS, simvastatin (5 μM) and mevalonate (50 μM). On Day 3 cells were treated as described in FIG. 7A and samples were collected. The rate of incorporation of [^3H]oleate into cholesteryl [^3H]oleate was performed on Day 3 as previously described (Goldstein et al., 1983).
The consequence of loss of Aster function for sterol movement from the PM to the ER in cultured cells was investigated. Since Aster-B expression is minimal in most cultured cell lines, knockdown Aster-A expression, which is abundant 3T3-L1 cells, was chosen. When ER cholesterol levels rise, cells respond first by suppressing SREBP-2 cleavage (thereby blocking sterol synthesis) and second by activating ACAT-dependent CE synthesis. Cholesterol movement to the ER following exogenous delivery was assessed by measuring two endpoints: 1. the activity of the SREBP-2 pathway and 2. the formation of cholesterol esters. […] The fact that some suppression of the SREBP-2 pathway at later time points was still observed even with Aster-A ASO was not unexpected, since vesicular sterol transport pathways were presumably still operative.

[6] = test system: 3T3-L1 cells; assay: cholesteryl ester formation from [^3H]oleate after Aster-A ASO; type: cell-based, murine
Method: FIG. 13A: Immunoblot analysis of membrane (top) and nuclear (bottom) protein levels in 3T3-L1 cells treated for 48 h with control or Aster-A-specific ASO and then for the indicated times with cyclodextrin-cholesterol. Calnexin was used as a membrane loading control and Lamin A/C as a nuclear loading control. FIG. 13B: Real-time PCR analysis of gene expression in 3T3-L1 cells treated for 48 h with control or Aster-A-specific ASO and then for the indicated times with cyclodextrin-cholesterol. ***p<0.001. FIG. 13C: Real-time PCR analysis of Abca1 expression in 3T3-L1 cells treated for 48 h with control or Aster-A-specific ASO and then for the indicated times with cyclodextrin-cholesterol. **p<0.01; ***p<0.001. […] Cells were incubated with [^3H]oleate for the indicated time, CE was isolated by TLC, and the incorporation of label into CE quantified by scintillation counting and normalized to protein (mg). *p<0.05; ***p<0.001. […] FIG. 13H: Serum corticosterone levels measured by ELISA in WT and Aster-B KO mice that were fed ad-lib or fasted overnight (˜16 hours). […]
To assess the effects of Aster deficiency on CE production, cells were incubated in the presence of [^3H]oleate, treated with cyclodextrin-cholesterol complexes, and the incorporation of label into CE was quantified. […]

[7] = target: T1, Aster-B GRAM domain (Mus musculus, UniProt Q80TI0); assay: protein-lipid overlay (PIP Strips); type: binding; settings: lipid strip, 100 pmol lipid per spot
T1 construct: B GRAM (Aster-B1-337) was conducted using PIP Strips (Echelon Biosciences); made in house; host or cells: Sf9 insect cells
T1 sequence (Q80TI0 41-377 limits assumed): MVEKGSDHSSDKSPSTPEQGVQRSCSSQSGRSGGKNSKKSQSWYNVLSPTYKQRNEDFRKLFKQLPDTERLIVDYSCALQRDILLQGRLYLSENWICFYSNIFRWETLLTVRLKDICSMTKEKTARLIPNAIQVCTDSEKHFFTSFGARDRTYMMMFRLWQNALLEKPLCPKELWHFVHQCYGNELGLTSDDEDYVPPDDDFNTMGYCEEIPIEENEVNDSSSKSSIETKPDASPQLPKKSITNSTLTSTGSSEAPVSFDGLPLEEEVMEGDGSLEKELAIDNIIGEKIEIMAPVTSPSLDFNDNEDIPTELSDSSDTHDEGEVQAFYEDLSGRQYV
Method: FIG. 9A: Protein-lipid overlay over purified mouse Aster-B GRAM domain with various phospholipid species. PA and PS correspond to phosphatidic acid and phosphatidylserine, respectively. FIG. 9A discloses “6xHis” as SEQ ID NO: 11. FIG. 9B: Purified Aster-B GRAM domain was incubated with sucrose-loaded heavy liposomes containing Dansyl-PE and 80-85% PC or 80-85% PS+/−5% Cholesterol. Liposomes were sedimented, washed, and analyzed by immunoblotting for associated Aster-B Gram protein (anti-His antibody). FIG. 9C: Localization of full-length and B ΔGRAM Aster-B-GFP constructs with plasma membrane (CellMask stain) expressed in HeLa cells in the presence or absence of cholesterol loading imaged by live cell confocal microscopy. […] FIG. 9E: Quantification of Aster-B PH-EGFP intensity in the TIRF plane upon cholesterol loading (left panel; n=2-3 cells, error bars+/−SD). […] TIRF videos recorded 5 slices (slices 3-5 were used to calculate FO) before cholesterol addition. […]
The Aster proteins contain an N-terminal GRAM domain, a structural motif related to the pleckstrin homology domain that is found in glucosyltransferases, Rab-like GTPase activators, myotubularins, and other membrane-associated proteins. […] Given that phosphatidylserine is highly enriched in the inner leaflet of the PM, it was further determined if the Aster-B GRAM domain was associated with phosphatidylserine-containing liposomes.

**Q.** How did the “inhibition of binding of NBD-cholesterol to the ASTER domain from Aster-B” value (“inhibition of binding of NBD-cholesterol” for short) [1] turn out when `CC(C)CCC[C@@H](C)[C@H]1CC[C@H]2[C@@H]3CC=C4[C@@H](O)[C@@H](O)CC[C@]4(C)[C@H]3CC[C@]12C` [4β-hydroxycholesterol] was run?
**A.** The value was “comparatively poor competitors”.

**Q.** How did the “inhibition of binding of NBD-cholesterol” value [1] turn out when `CC(C)CCC[C@@H](C)[C@H]1CC[C@H]2[C@@H]3[C@@H](O)C=C4C[C@@H](O)CC[C@]4(C)[C@H]3CC[C@]12C` [7β-hydroxycholesterol] was run?
**A.** The value was “comparatively poor competitors”.

**Q.** Which “inhibition of binding of NBD-cholesterol” value [1] does the source give for `CC(C)CCC[C@](C)(O)[C@H]1CC[C@H]2[C@@H]3CC=C4C[C@@H](O)CC[C@]4(C)[C@H]3CC[C@@]21C` [20α-HC, 20α-hydroxycholesterol] here?
**A.** Its value is “inhibited”.

**Q.** Which “inhibition of binding of NBD-cholesterol” value [1] does the source give for `CC(C)CC[C@@H](O)[C@@H](C)[C@H]1CC[C@H]2[C@@H]3CC=C4C[C@@H](O)CC[C@]4(C)[C@H]3CC[C@]12C` [22R-HC, 22-R-hydroxycholesterol] here?
**A.** Its value is “inhibited”.

**Q.** With `CC(C)CC[C@H](O)[C@@H](C)[C@H]1CC[C@H]2[C@@H]3CC=C4C[C@@H](O)CC[C@]4(C)[C@H]3CC[C@]12C` [22S-hydroxycholesterol] as the compound, how does the “inhibition of binding of NBD-cholesterol” value [1] read?
**A.** The value was “comparatively poor competitors”.

**Q.** With `C[C@H](CCCC(C)(C)O)[C@H]1CC[C@H]2[C@@H]3CC=C4C[C@@H](O)CC[C@]4(C)[C@H]3CC[C@]12C` [25-HC, 25-hydroxycholesterol] as the compound, how does the “inhibition of binding of NBD-cholesterol” value [1] read?
**A.** The value was “inhibited”.

**Q.** How did the Kd [2] turn out when `C[C@H](CNc1ccc([N+](=O)[O-])c2nonc12)[C@H]1CC[C@H]2[C@@H]3CC=C4C[C@@H](O)CC[C@]4(C)[C@H]3CC[C@]12C` [NBD-cholesterol, 22-NBD-cholesterol] was run?
**A.** The Kd was < 100 nM.

**Q.** `CC(C)CCC[C@@H](C)[C@H]1CC[C@H]2[C@@H]3CC=C4C[C@@H](O)CC[C@]4(C)[C@H]3CC[C@]12C` [[^3H]cholesterol] was tested. Which “direct binding to the ASTER domain of Aster-B” value [3] did it give?
**A.** Its value is “direct binding”.

**Q.** With `CC(C)CCC[C@@H](C)[C@H]1CC[C@H]2[C@@H]3CC=C4C[C@@H](O)CC[C@]4(C)[C@H]3CC[C@]12C` [cholesterol] as the compound, how does the “inhibition of binding of NBD-cholesterol” value [1] read?
**A.** The value was “inhibited”.

**Q.** Which Gramd1b expression [4] does the source give for `O=C(O)Cc1cccc(OCCCN(Cc2cccc(C(F)(F)F)c2Cl)CC(c2ccccc2)c2ccccc2)c1` [synthetic LXR agonist, GW3965] here?
**A.** Its Gramd1b expression is “induced”.

**Q.** How did the Gramd1a expression ([5]; ASO 50 nM, 48 h) turn out when “Aster-A-specific ASO: Generation 2.5 constrained ethyl ASO, GTGGAATTTATTCAGG (SEQ ID NO: 13) (Generation 2.5 constrained ethyl (cEt) ASO, modification pattern not given here)” was run?
**A.** The Gramd1a expression was “nearly abolished”.

**Q.** What about the LDLR protein levels ([5]; ASO 48 h) of the same compound?
**A.** The LDLR protein levels was “increased”.

**Q.** What about the SREBP-2 processing ([5]; ASO 48 h) of the same compound?
**A.** Its SREBP-2 processing is “induction”.

**Q.** And the “expression of SREBP-2 target genes, including Hmcgr, and Hmgcs” value ([5]; ASO 48 h)?
**A.** The value was “increased”.

**Q.** What about the “ability of exogenously added cyclodextrin-cholesterol to suppress SREBP-2 processing” value ([5]; Aster-A silenced cells) of the same compound?
**A.** Its value is “clearly delayed”.

**Q.** And the “expression of Abca1 (protein and mRNA)” value ([5]; absence of Aster-A)?
**A.** The value was “reciprocally reduced”.

**Q.** What about the “rate at which cholesterol delivered to the PM was incorporated into CE” value ([6]; [^3H]oleate, cyclodextrin-cholesterol) of the same compound?
**A.** Its value is “markedly slower”.

**Q.** What about the “amount of CE formed relative to control cells” value ([6]; two hours after cholesterol addition) of the same compound?
**A.** The value was “less than 25%”.

**Q.** Which “interaction with purified Aster-B GRAM domain” value [7] does the source give for “phosphatidic acid [phosphatidic acid (PA)]” here?
**A.** Its value is “interacted strongly”.
